Measurements from patent US10647743B2, “Method of making biologically active alpha-beta peptides” (priority 2008, dated 2020).
Read-outs that look alike come from different tables or passages of the source. *1 amine or outer side, *2 acyl side, *3 side chain or, on linkers, in order; H or OH if unused. Where a SMILES comes first, the peptide text is derived from it. [ ]: non-standard residue; d: D form. ξ: configuration not given here. ξ(4-Aminopyrrolidine-3-CO) = O=C(C1CNCC1N[*:1])[*:2]; β3hR = N=C(N)NCCC[C@H](N)CC(=O)O; β3hT = C[C@@H](O)[C@H](N)CC(=O)O; β3hE = N[C@@H](CCC(=O)O)CC(=O)O; X1 = O=C(C1CCCC1N[*:1])[*:2]

Columns and labels:
proteinase K [1] = target: T1, proteinase K (Parengyodontium album, UniProt P06873); experiment: in vitro; conditions: for half-life at 20 μM: proteinase K solution in TBS
T1 sequence (P06873 106-384): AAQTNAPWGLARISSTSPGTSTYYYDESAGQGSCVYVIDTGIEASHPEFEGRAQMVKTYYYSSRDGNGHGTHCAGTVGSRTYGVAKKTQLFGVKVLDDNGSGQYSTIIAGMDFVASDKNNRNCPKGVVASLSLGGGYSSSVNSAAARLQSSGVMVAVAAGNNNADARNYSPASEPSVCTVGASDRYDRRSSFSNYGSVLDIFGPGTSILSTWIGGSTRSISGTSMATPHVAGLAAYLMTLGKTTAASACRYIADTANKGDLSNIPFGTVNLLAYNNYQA

HIV-1 NL4-3 = conditions: read-out: Inhibition of HIV-1 infectivity, IC50 (nM), X4 strains, NL4-3; TZM-bl cells; mean ± S.E.M., three experiments
HIV-1 CC 1/85 = conditions: read-out: Inhibition of HIV-1 infectivity, IC50 (nM), R5 strains, CC 1/85; TZM-bl cells; mean ± S.E.M., three experiments
proteinase K [2] = target: T1, proteinase K; conditions: relative to 3
[3] = target: T2, envelope glycoprotein of the HIV-1 clone HXB2 (Human immunodeficiency virus type 1 group M subtype B, UniProt P04578); experiment: cell-cell fusion assay; format: cell-based
T2 construct: One cell line expresses HIV-1 Env (processed by cellular proteases to generate gp120+gp41); expressed in transfected cells; host or cells: CHO cells expressing HXB2 env (and Tat); U373-MAGI target cells

HIV-1 DJ258 = conditions: read-out: Inhibition of HIV-1 infectivity, IC50 (nM), R5 strains, DJ258; TZM-bl cells; mean ± S.E.M., three experiments
HIV-1 HC4 = conditions: read-out: Inhibition of HIV-1 infectivity, IC50 (nM), X4 strains, HC4; TZM-bl cells; mean ± S.E.M., three experiments
gp41-5 = gp41-5 (Human immunodeficiency virus type 1 group M subtype B, UniProt P04578, C598G/DEL582-595/DEL601-626/T627G/W596S); experiment: biochemical; format: binding, HIV; conditions: for Ki: competition FP
NHR α-peptide 1 = target: T3, NHR α-peptide 1 (Human immunodeficiency virus type 1 group M subtype B, UniProt P04578); experiment: CD thermal unfolding of 1:1 NHR + CHR peptide mixtures; format: physicochemical, HIV; conditions: Table 2; CD at 222 nm, 1:1 mixture with NHR α-peptide 1, PBS, 20 μM total peptide
T3 construct: made in house; host or cells: chemical synthesis (Fmoc solid phase)
Experimental: The interactions of select α/β-peptides with the gp41 NHR domain were further investigated by circular dichroism (CD) spectroscopy. The CD spectra of 3, 4, 5, 8, 9 and were measured, both alone (see FIG. 5A) and in a 1:1 mixture with NHR α-peptide 1 (see FIGS. 3A, 3B, 3C, and 3D, respectively). See also FIGS. 5B and 5C for the superimposed spectra. […] The magnitude of the CD signatures among the well-folded mixtures (1+3, 1+5 and 1+10, FIGS. 3A, 3C, and 3D, respectively) are similar, but the ratio of intensities at 208 and 222 nm changes as a function of β-residue content (more β-residues tracks with a less intense peak at 222 nm).
The interactions of CHR α-peptide 3 and α/β-peptide analogues 4, 5, 8 and 10 with a peptide derived from the gp41 NHR domain (1) were investigated by circular dichroism (CD) spectroscopy. […] The magnitude of the CD signatures among the well-folded mixtures (1+3, 1+5, 1+8 and 1+10) are similar, but the ratio of intensities at 208 and 222 nm changes as a function of β-residue content (higher β-residue content is correlated with a less intense peak at 222 nm). This trend is consistent with previous studies on helical oligomers containing mixed α/β backbones.
Circular Dichroism Spectroscopy. Circular dichroism measurements were carried out on an Aviv 202SF Circular Dichroism Spectrophotometer. Samples of each peptide were prepared at 20 μM concentration in PBS. Solutions of 1:1 peptide mixtures were prepared by mixing equal volumes from the same 20 μM stock solutions used for individual peptide measurements. Spectra were recorded in a 1 mm cell with a step size of 1 nm and an averaging time of 5 sec. All spectra are background corrected against buffer measured in the same cell. Thermal melts were carried out in 5-degree increments with an equilibration time of 10 min between each temperature change. Thermal unfolding data were fit to a simple two state folding model Shortle, D.; Meeker, A. K.; Freire, E. Biochemistry 1988, 27, 4761-4768) using GraphPad Prism.

Compound `CC[C@H](C)[C@H](NC(=O)[C@H](C)NC(=O)C[C@H](CCCNC(=N)N)NC(=O)[C@H](CC(=O)O)NC(=O)[C@H](Cc1c[nH]c2ccccc12)NC(=O)C[C@H](C)NC(=O)[C@H](CCC(=O)O)NC(=O)[C@H](Cc1c[nH]c2ccccc12)NC(=O)[C@@H](NC(=O)C[C@@H](NC(C)=O)[C@@H](C)O)[C@@H](C)O)C(=O)N[C@@H](C)C(=O)N[C@@H](CCC(=O)O)CC(=O)N[C@@H](Cc1ccc(O)cc1)C(=O)N[C@@H](C)C(=O)N[C@@H](C)CC(=O)N[C@@H](CCCNC(=N)N)C(=O)N[C@H](C(=O)N[C@@H](CCC(=O)O)C(=O)N[C@@H](C)CC(=O)N[C@@H](CC(C)C)C(=O)N[C@H](C(=O)N[C@@H](CCCNC(=N)N)CC(=O)N[C@@H](C)C(=O)N[C@@H](C)C(=O)N[C@@H](CCC(N)=O)C(=O)N[C@@H](CCC(=O)O)CC(=O)N[C@@H](CCC(N)=O)C(=O)N[C@@H](CCC(N)=O)C(=O)N[C@@H](CCC(=O)O)CC(=O)N[C@@H](CCCCN)C(=O)N[C@@H](CC(N)=O)C(=O)N[C@@H](CCC(=O)O)C(=O)N[C@@H](C)CC(=O)N[C@@H](C)C(=O)N[C@@H](CC(C)C)C(=O)N[C@@H](CCCNC(=N)N)CC(=O)N[C@@H](CCC(=O)O)C(=O)N[C@@H](CC(C)C)C(N)=O)[C@@H](C)CC)[C@@H](C)CC` [compound 4] has a half-life at 20 μM (proteinase K [1]; Tritirachium album (source organism of proteinase K)) of 14 min, a half-life at 20 μM (proteinase K [1]) of 14 min and an IC50 (HIV-1 NL4-3) of 700 ± 60 nM. For the same compound, the IC50 (HIV-1 CC 1/85) was 1300 ± 100 nM, the “fold improvement in stability to proteinase K relative to α-peptide 3” value (proteinase K [2]) was 20 fold and the IC50 [3] was 0.39 ± 0.04 µM. It also gave an IC50 (HIV-1 DJ258) of 960 ± 200 nM, an IC50 (HIV-1 HC4) of 590 ± 100 nM and a Ki (gp41-5; Table 2, read-out: gp41-5 Ki) of 3.8 µM.
`CC[C@H](C)[C@H](NC(=O)[C@H](C)NC(=O)[C@H](CCCNC(=N)N)NC(=O)[C@H](CC(=O)O)NC(=O)[C@H](Cc1c[nH]c2ccccc12)NC(=O)[C@H](C)NC(=O)[C@H](CCC(=O)O)NC(=O)[C@H](Cc1c[nH]c2ccccc12)NC(=O)[C@@H](NC(=O)[C@@H](NC(C)=O)[C@@H](C)O)[C@@H](C)O)C(=O)N[C@@H](C)C(=O)N[C@@H](CCC(=O)O)C(=O)N[C@@H](Cc1ccc(O)cc1)C(=O)N[C@@H](C)C(=O)N[C@@H](C)CC(=O)N[C@@H](CCCNC(=N)N)C(=O)N[C@H](C(=O)N[C@@H](CCC(=O)O)C(=O)N[C@@H](C)CC(=O)N[C@@H](CC(C)C)C(=O)N[C@H](C(=O)N[C@@H](CCCNC(=N)N)CC(=O)N[C@@H](C)C(=O)N[C@@H](C)C(=O)N[C@@H](CCC(N)=O)C(=O)N[C@@H](CCC(=O)O)CC(=O)N[C@@H](CCC(N)=O)C(=O)N[C@@H](CCC(N)=O)C(=O)N[C@@H](CCC(=O)O)CC(=O)N[C@@H](CCCCN)C(=O)N[C@@H](CC(N)=O)C(=O)N[C@@H](CCC(=O)O)C(=O)N[C@@H](C)CC(=O)N[C@@H](C)C(=O)N[C@@H](CC(C)C)C(=O)N[C@@H](CCCNC(=N)N)CC(=O)N[C@@H](CCC(=O)O)C(=O)N[C@@H](CC(C)C)C(N)=O)[C@@H](C)CC)[C@@H](C)CC` [compound 6] showed a Ki (gp41-5; Table 2, read-out: gp41-5 Ki) of 0.015 µM.
`CC[C@H](C)[C@H](NC(=O)[C@H](C)NC(=O)C1CNCC1NC(=O)[C@H](CC(=O)O)NC(=O)[C@H](Cc1c[nH]c2ccccc12)NC(=O)C1CCCC1NC(=O)[C@H](CCC(=O)O)NC(=O)[C@H](Cc1c[nH]c2ccccc12)NC(=O)[C@@H](NC(=O)C[C@@H](NC(C)=O)[C@@H](C)O)[C@@H](C)O)C(=O)N[C@@H](C)C(=O)N[C@@H](CCC(=O)O)CC(=O)N[C@@H](Cc1ccc(O)cc1)C(=O)N[C@@H](C)C(=O)NC1CCCC1C(=O)N[C@@H](CCCNC(=N)N)C(=O)N[C@H](C(=O)N[C@@H](CCC(=O)O)C(=O)NC1CCCC1C(=O)N[C@@H](CC(C)C)C(=O)N[C@H](C(=O)NC1CNCC1C(=O)N[C@@H](C)C(=O)N[C@@H](C)C(=O)N[C@@H](CCC(N)=O)C(=O)N[C@@H](CCC(=O)O)CC(=O)N[C@@H](CCC(N)=O)C(=O)N[C@@H](CCC(N)=O)C(=O)N[C@@H](CCC(=O)O)CC(=O)N[C@@H](CCCCN)C(=O)N[C@@H](CC(N)=O)C(=O)N[C@@H](CCC(=O)O)C(=O)NC1CCCC1C(=O)N[C@@H](C)C(=O)N[C@@H](CC(C)C)C(=O)NC1CNCC1C(=O)N[C@@H](CCC(=O)O)C(=O)N[C@@H](CC(C)C)C(N)=O)[C@@H](C)CC)[C@@H](C)CC` (stereo partly drawn) [compound 10, Ac-TTWEXWDZAIAEYAXRIEXLIZAAQEQQEKNEXALZEL-NH2] (Ac-[β3hT]TWE[X1]WD[ξ(4-Aminopyrrolidine-3-CO)]AIA[β3hE]YA[X1]RIE[X1]LI[ξ(4-Aminopyrrolidine-3-CO)]AAQ[β3hE]QQ[β3hE]KNE[X1]AL[ξ(4-Aminopyrrolidine-3-CO)]EL-NH2) was tested, and the half-life (proteinase K [1]) was 200 min, the “NHR + CHR Tm (° C.)” value (NHR α-peptide 1) was 55 °C and the “fold improvement in stability to proteinase K relative to α-peptide 3” value (proteinase K [2]) was 280 fold. The “fold difference in affinity for gp41-5 relative to 5” value (gp41-5) was greater than 45 fold, the “fold higher affinity for gp41-5 relative to 4” value (gp41-5; relative to 4) was roughly 380 fold and the “fold improvement of Ki relative to 9” value (gp41-5; relative to 9) was roughly 10 fold.
With `CC[C@H](C)[C@H](NC(=O)[C@H](C)NC(=O)C[C@H](CCCNC(=N)N)NC(=O)[C@H](CC(=O)O)NC(=O)[C@H](Cc1c[nH]c2ccccc12)NC(=O)C[C@H](CCC(=O)O)NC(=O)[C@H](CCC(=O)O)NC(=O)[C@H](Cc1c[nH]c2ccccc12)NC(=O)[C@@H](NC(=O)C[C@H](CCCNC(=N)N)NC(C)=O)[C@@H](C)O)C(=O)N[C@@H](C)C(=O)N[C@@H](CCC(=O)O)CC(=O)N[C@@H](Cc1ccc(O)cc1)C(=O)N[C@@H](C)C(=O)N[C@@H](CCCNC(=N)N)CC(=O)N[C@@H](CCCNC(=N)N)C(=O)N[C@H](C(=O)N[C@@H](CCC(=O)O)C(=O)N[C@@H](CCC(=O)O)CC(=O)N[C@@H](CC(C)C)C(=O)N[C@H](C(=O)N[C@@H](CCCNC(=N)N)CC(=O)N[C@@H](C)C(=O)N[C@@H](C)C(=O)N[C@@H](CCC(N)=O)C(=O)N[C@@H](CCC(=O)O)CC(=O)N[C@@H](CCC(N)=O)C(=O)N[C@@H](CCC(N)=O)C(=O)N[C@@H](CCCNC(=N)N)CC(=O)N[C@@H](CCCCN)C(=O)N[C@@H](CC(N)=O)C(=O)N[C@@H](CCC(=O)O)C(=O)N[C@@H](CCC(=O)O)CC(=O)N[C@@H](C)C(=O)N[C@@H](CC(C)C)C(=O)N[C@@H](CCCNC(=N)N)CC(=O)N[C@@H](CCC(=O)O)C(=O)N[C@@H](CC(C)C)C(N)=O)[C@@H](C)CC)[C@@H](C)CC` [compound 17] (Ac-[β3hR]TWE[β3hE]WD[β3hR]AIA[β3hE]YA[β3hR]RIE[β3hE]LI[β3hR]AAQ[β3hE]QQ[β3hR]KNE[β3hE]AL[β3hR]EL-NH2) the Ki (gp41-5; read-out: Ki for gp41-5) was 0.011 µM.
